This passage reports IC50 and inhibition results from US10689362B2, “Quinoxaline compounds as type III receptor tyrosine kinase inhibitors” (Development Center for Biotechnology, priority 2016, dated 2020).

Where only a bound is given, the exact number is not on record here.

For assay [1], the target named is c-KIT kinase (Homo sapiens (Human), UniProt P10721). Briefly: c-KIT kinase assay (radiometric). Format: biochemical. In outline: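 Recombinant c-Kit (20 ng) with 2 μg Poly-(Glu4:Tyr1) in MOPS pH 7.0 buffer with MgCl2/MnCl2, 10 μM ATP plus [^33P]-ATP, 4% DMSO final, 60 min at 30° C. Stopped with phosphoric acid, filter-captured and scintillation counted; IC50 from curve fit.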

Assay [2] concerns the target PDGFRβ kinase (Homo sapiens (Human), UniProt P09619). Briefly: PDGFRβ kinase assay (radiometric). Format: biochemical. In a few lines: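 Radiometric assay: recombinant PDGFRβ with poly(Glu4:Tyr1) in MOPS pH 7.0 buffer containing Mg2+/Mn2+, 10 μM ATP plus [33P]-ATP, and compound at 4% DMSO final. Incubated 60 min at 30° C, stopped with phosphoric acid, filter-captured and scintillation-counted. IC50 from curve fitting.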

For assay [3], the system named is CSF-1-dependent M-NFS-60 mouse myeloid leukemia cell. Briefly: M-NFS-60 cell proliferation assay (CellTiter-96). Format: cell-based. Particulars: Cytotoxicity, M-NFS-60 cells, 72 hours. In a few lines: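 Growth inhibition was measured as absorbance at 490 nm after 4 h with CellTiter 96 AQueous One reagent. Beforehand, M-NFS-60 cells (2000/well, CSF-1-dependent) were treated with a compound dilution series for 72 h following overnight plating at 37 °C, 5% CO2.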

Assay [4] relates to MV4-11 human acute myeloid leukemia cell with FLT3-ITD mutation. Briefly: MV4-11 cell proliferation assay (CellTiter-96). Particulars: Cytotoxicity, MV4-11 cells, 72 hours. Format: cell-based. In a few lines: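 Growth inhibition read as absorbance at 490 nm after 4 hours with CellTiter96 AQueous One reagent. Before that, FLT3-ITD-dependent MV4-11 cells (6500 cells/well, overnight at 37° C., 5% CO2) received a rising compound concentration series for 72 hours.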

The subject of assay [5] is Kasumi-1 human acute myeloid leukemia cell with c-KIT N822K activating mutation. Briefly: Kasumi-1 cell proliferation assay (CellTiter-96). The note with it: Cytotoxicity, Kasumi-1 cells, 72 hours. Format: cell-based. In outline: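 After 72 h of treatment with a compound dilution series, growth of c-KIT N822K-driven Kasumi-1 cells (64000 per well, plated the day before) was read as 490 nm absorbance. This followed a 4 h incubation with CellTiter96 AQueous One reagent.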

The subject of assay [6] is osteoclast precursors (osteoclast differentiation). Briefly: Osteoclast tartrate-resistant acid phosphatase assay. Format: cell-based. The note with it: 168 h, at 1 μM treatment, 7 days, RANKL and M-CSF, read-out: inhibition activity against osteoclast differentiation. How it is done: A serial dilution of test compound was dispensed into a 96-well black clear bottom plate. Compound was diluted by the addition of DMEM media supplemented with 10% characterized fetal bovine serum. Diluted compound was transferred to a 96-well black clear bottom plate. Three thousand osteoclast precursors (Lonza, Walkersville, Md.) were added per well in growth medium containing Receptor Activator of Nuclear Factor Kappa-beta ligand (RANKL) and M-CSF. […] At the end of the incubation period, 50 μL of supernatant from each well was transferred to a clear 96-well plate. Tartrate-resistant acid phosphatase activity in the supernatant samples was determined using an acid phosphatase assay kit (Sigma, St. Louis, Mo.). Absorbance was measured at 550 nm using a plate reader. […] The Inhibition activity against osteoclast differentiation for each compound at 1 μM treatment in duplicate was measured.

Assay [7] has as its target FLT3 kinase (Homo sapiens (Human), UniProt P36888). The experiment in a line: FLT3 kinase assay (radiometric). Format: biochemical. Particulars: bound. In outline:
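Recombinant FLT3 (5 ng) phosphorylating poly(Glu4:Tyr1) (2 μg) with 10 μM ATP plus [^33P]-ATP in MOPS pH 7.0 buffer, 4% DMSO final, 60 min at 30° C. Reaction stopped with phosphoric acid, filter-captured and scintillation-counted; IC50 derived from dose-response.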

The target in assay [8] is CSF-1R kinase (Homo sapiens (Human), UniProt P07333). Briefly: CSF-1R kinase assay (AlphaScreen). Format: biochemical. The note with it: class symbol. How it is done: Inhibition of CSF-1R kinase activity by a test compound disclosed herein was estimated by AlphaScreen (PerkinElmer). […] Reactions were incubated at 30° C. for 45 min and stopped by adding 5 μL of 50 mM EDTA. Analysis of resulting product using an AlphaScreen kit, and counted with Enspire Alpha (PerkinElmer). […] The IC50 values of quinoxaline compounds of this invention against CSF-1R kinase were determined using the GraphPad Prism 5 software.
Background: Alpha assays give light when donor and acceptor beads are brought close together.

Assay [9] deals with THP-1 human acute monocytic leukemia cell harboring NRAS G12D mutation. The experiment in a line: THP-1 cell proliferation assay (counter screen, CellTiter-96). Format: cell-based. Particulars: Cytotoxicity, THP-1 cells (counter screen), 72 hours. In a few lines: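 Growth inhibition read as 490 nm absorbance after 4 h with CellTiter96 AQueous One reagent, following 72 h compound exposure at rising concentrations. THP-1 (NRAS G12D) cells plated at 5000 per well and left overnight at 37 °C, 5% CO2 before dosing.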

Chain of c-KIT kinase (P10721 26-976): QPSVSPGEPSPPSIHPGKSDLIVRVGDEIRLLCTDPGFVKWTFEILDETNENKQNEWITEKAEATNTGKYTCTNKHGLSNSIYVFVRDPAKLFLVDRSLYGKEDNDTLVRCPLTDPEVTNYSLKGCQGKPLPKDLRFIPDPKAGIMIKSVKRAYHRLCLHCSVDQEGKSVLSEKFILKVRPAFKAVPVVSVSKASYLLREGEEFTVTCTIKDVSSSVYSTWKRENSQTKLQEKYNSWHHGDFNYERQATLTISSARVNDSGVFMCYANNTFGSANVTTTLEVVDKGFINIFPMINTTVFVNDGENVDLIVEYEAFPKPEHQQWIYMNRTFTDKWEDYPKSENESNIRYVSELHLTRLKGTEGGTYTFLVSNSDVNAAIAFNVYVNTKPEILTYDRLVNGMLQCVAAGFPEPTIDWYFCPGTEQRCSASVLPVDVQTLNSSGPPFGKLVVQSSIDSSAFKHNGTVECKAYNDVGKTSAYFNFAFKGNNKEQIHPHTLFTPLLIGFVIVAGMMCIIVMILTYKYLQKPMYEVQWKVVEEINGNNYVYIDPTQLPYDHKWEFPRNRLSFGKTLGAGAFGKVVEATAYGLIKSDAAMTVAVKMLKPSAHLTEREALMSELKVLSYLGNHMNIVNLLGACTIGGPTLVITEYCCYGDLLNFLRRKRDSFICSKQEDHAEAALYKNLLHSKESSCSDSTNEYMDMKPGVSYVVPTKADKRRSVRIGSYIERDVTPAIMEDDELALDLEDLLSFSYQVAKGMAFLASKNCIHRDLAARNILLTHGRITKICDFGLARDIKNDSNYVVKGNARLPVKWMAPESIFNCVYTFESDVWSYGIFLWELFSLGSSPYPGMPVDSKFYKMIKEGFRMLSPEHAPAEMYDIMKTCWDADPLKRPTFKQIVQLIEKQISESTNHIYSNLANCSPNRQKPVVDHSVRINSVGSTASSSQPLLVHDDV
Chain of CSF-1R kinase (P07333 20-972): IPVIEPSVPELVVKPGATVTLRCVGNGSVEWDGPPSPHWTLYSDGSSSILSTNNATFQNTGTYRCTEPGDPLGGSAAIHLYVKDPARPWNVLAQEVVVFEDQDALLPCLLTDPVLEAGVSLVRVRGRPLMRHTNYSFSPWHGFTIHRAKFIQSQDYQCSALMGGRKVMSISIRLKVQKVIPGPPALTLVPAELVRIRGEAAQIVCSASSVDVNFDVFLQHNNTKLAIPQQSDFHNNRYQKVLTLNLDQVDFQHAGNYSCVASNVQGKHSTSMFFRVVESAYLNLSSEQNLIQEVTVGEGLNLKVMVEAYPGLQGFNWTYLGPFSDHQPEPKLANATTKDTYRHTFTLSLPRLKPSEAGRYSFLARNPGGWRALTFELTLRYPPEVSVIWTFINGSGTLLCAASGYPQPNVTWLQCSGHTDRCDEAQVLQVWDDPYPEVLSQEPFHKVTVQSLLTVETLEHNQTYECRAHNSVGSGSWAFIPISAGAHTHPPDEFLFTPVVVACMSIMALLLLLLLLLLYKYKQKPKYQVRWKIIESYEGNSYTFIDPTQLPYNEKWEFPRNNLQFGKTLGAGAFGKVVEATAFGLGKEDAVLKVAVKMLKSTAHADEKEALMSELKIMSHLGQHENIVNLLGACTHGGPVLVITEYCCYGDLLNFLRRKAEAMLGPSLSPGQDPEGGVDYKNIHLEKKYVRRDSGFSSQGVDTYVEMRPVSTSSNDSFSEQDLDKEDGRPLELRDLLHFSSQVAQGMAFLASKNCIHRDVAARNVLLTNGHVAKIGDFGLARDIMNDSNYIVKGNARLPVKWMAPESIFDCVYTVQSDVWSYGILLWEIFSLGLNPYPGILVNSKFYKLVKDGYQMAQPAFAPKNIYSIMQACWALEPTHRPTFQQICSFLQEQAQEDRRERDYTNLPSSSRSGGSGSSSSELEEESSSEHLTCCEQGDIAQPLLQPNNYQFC
Chain of FLT3 kinase (P36888 27-993): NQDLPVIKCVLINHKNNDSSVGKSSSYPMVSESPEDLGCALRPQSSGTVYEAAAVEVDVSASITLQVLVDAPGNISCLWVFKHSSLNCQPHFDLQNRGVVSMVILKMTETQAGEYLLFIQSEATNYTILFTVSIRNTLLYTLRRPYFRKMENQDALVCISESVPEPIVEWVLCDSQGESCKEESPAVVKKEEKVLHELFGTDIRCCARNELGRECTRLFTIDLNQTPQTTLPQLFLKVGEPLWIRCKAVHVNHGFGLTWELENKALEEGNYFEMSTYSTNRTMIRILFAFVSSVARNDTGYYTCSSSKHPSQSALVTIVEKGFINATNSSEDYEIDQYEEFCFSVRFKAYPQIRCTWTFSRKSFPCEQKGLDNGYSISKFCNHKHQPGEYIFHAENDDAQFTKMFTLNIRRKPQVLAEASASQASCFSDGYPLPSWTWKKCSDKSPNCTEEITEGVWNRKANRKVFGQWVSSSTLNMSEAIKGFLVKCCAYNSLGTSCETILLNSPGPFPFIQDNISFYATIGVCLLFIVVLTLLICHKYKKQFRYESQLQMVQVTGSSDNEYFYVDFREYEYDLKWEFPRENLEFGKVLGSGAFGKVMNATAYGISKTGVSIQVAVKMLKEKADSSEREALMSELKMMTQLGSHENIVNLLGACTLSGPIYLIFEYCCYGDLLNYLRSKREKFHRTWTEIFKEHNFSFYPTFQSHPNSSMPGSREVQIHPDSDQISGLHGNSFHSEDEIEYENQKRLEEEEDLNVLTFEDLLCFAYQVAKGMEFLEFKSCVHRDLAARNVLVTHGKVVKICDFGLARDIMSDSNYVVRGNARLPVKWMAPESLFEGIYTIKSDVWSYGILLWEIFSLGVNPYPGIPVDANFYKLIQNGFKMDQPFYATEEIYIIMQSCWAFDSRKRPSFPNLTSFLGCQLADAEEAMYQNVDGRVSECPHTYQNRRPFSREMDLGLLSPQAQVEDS
Chain of PDGFRβ kinase (P09619 33-1106): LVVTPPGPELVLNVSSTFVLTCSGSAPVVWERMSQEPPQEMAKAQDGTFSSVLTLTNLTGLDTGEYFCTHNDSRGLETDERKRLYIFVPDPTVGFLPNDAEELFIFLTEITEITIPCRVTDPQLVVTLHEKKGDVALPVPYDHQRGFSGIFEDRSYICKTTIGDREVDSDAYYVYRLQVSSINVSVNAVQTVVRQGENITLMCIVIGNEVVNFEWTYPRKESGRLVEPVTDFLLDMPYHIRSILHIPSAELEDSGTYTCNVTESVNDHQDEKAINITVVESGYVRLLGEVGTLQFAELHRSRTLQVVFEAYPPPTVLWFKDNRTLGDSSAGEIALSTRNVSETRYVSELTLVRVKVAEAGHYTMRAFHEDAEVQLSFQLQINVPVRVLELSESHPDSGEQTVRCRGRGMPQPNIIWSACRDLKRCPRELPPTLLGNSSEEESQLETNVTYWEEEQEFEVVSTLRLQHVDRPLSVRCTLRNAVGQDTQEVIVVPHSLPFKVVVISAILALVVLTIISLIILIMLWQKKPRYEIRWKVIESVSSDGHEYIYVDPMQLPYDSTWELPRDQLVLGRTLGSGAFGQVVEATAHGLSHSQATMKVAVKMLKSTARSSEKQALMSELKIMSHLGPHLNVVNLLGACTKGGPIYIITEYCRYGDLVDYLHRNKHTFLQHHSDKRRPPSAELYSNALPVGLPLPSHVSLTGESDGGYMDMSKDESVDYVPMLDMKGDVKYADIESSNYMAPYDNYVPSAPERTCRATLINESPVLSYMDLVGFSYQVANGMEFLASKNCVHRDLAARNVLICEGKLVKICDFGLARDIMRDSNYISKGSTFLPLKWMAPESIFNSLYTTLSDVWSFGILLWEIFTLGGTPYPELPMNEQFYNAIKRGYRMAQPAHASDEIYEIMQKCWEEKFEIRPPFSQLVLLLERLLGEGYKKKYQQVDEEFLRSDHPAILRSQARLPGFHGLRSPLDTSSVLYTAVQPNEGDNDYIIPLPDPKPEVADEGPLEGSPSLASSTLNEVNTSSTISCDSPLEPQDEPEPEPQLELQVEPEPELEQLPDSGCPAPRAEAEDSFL

Turning to `COc1cc(Nc2ccc3ncc(N4CCOCC4)nc3c2C#N)ccc1OCc1ccc(F)c(F)c1` [Example 99, 6-((4-((3,4-difluorobenzyl)oxy)-3-methoxyphenyl)amino)-3-morpholinoquinoxaline-5-carbonitrile], the IC50 (in general, the concentration that inhibits the measured activity by half) is above 1000 nM in assay [1] (bound); above 1000 nM in assay [2] (bound); below 300 nM in assay [3]; above 10000 nM in [4]; above 10000 nM in assay [5]; above 1000 nM in assay [7]. Further, the IC50 in assay [8] is below 100 nM; in assay [9], above 10000 nM. Moreover, the inhibition (in general, how much of the control response was suppressed) at 1 µM in assay [6] is above 50%.
As to `CNc1cnc2ccc(Nc3ccc(OCc4ccc(OC)cc4)c(OC)c3)cc2n1` [Example 25, N^7-(3-methoxy-4-((4-methoxybenzyl)oxy)phenyl)-N^2-methylquinoxaline-2,7-diamine], the IC50 in assay [1] (class symbol) is below 100 nM; in assay [2] (bound), above 1000 nM; in [3] it was below 300 nM; in [4] it was 1000 to 10000 nM; in assay [5], 300 to 1000 nM; in [7] it was above 1000 nM. The IC50 in assay [8] is below 100 nM; in assay [9] it was 1000 to 10000 nM. The inhibition at 1 µM in assay [6] was above 50%.
Take `COc1cc(Nc2ccc3ncc(N4CCOCC4)nc3c2C#N)ccc1OCc1cnn(CC2CC2)c1` [Example 141, 6-((4-((1-(cyclopropylmethyl)-1H-pyrazol-4-yl)methoxy)-3-methoxyphenyl)amino)-3-morpholinoquinoxaline-5-carbonitrile]: the IC50 in [1] (class symbol) was below 100 nM; in [2] (class symbol), 300 to 1000 nM; in assay [3] it was below 300 nM; in assay [4], 1000 to 10000 nM; in assay [5], below 300 nM; in assay [7] it was above 1000 nM. Moreover, the IC50 in assay [8] is below 100 nM; in [9] it was above 10000 nM. The inhibition at 1 µM in assay [6] was above 50%.
`COc1ccc(COc2ccc(Nc3ccc4ncc(N5CCC(N(C)C)CC5)nc4c3C#N)cc2OC)cn1` [Example 82, 3-(4-(dimethylamino)piperidin-1-yl)-6-((3-methoxy-4-((6-methoxy-pyridin-3-yl)methoxy)phenyl)amino)quinoxaline-5-carbonitrile]: the IC50 was 100 to 300 nM in assay [1] (class symbol); above 1000 nM in [2] (bound); below 300 nM in assay [3]; 1000 to 10000 nM in assay [4]; below 300 nM in assay [5]; above 1000 nM in [7]. Further, the IC50 in [8] was below 100 nM; in assay [9] it was 1000 to 10000 nM. In addition, the inhibition at 1 µM in assay [6] was above 50%.
Regarding `COc1cc(Nc2ccc3ncc(N4CCOCC4)nc3c2C#N)ccc1OCc1ccc(C(F)(F)F)nc1` [Example 73, 6-((3-methoxy-4-((6-(trifluoromethyl)pyridin-3-yl)methoxy)phenyl)amino)-3-morpholinoquinoxaline-5-carbonitrile], the IC50 is below 100 nM in [1] (class symbol); above 1000 nM in assay [2] (bound); below 300 nM in [3]; above 10000 nM in assay [4]; below 300 nM in assay [5]; above 1000 nM in assay [7]. The IC50 is below 100 nM in [8] and above 10000 nM in [9]. For the same compound, the inhibition at 1 µM in [6] was above 50%.
Turning to `COc1cc(Nc2ccc3ncc(N4CCOCC4)nc3c2C#N)ccc1OCc1ccc(C(C)C)nc1` [Example 103, 6-((4-((6-isopropylpyridin-3-yl)methoxy)-3-methoxyphenyl)amino)-3-morpholinoquinoxaline-5-carbonitrile], the IC50 is below 100 nM in [1] (class symbol); above 1000 nM in assay [2] (bound); below 300 nM in assay [3]; 1000 to 10000 nM in assay [4]; below 300 nM in assay [5]; above 1000 nM in assay [7]. Further, the IC50 in [8] is below 100 nM; in assay [9] it was above 10000 nM. In addition, the inhibition at 1 µM in assay [6] is above 50%.
Turning to `COc1cc(Nc2ccc3ncc(N4CCN(C)CC4)nc3c2C#N)ccc1OCc1cccc(C#N)c1` [Example 78, 6-((4-((3-cyanobenzyl)oxy)-3-methoxyphenyl)amino)-3-(4-methylpiperazin-1-yl)quinoxaline-5-carbonitrile], the IC50 was 100 to 300 nM in assay [1] (class symbol); above 1000 nM in [2] (bound); below 300 nM in [3]; above 10000 nM in assay [4]; 300 to 1000 nM in assay [5]; above 1000 nM in [7]. Further, the IC50 in assay [8] was below 100 nM; in assay [9], above 10000 nM. In addition, the inhibition at 1 µM in assay [6] is above 50%.
As for `COc1cc(Nc2ccc3ncc(N4CCOCC4)nc3c2C#N)ccc1OCc1ccc(CF)nc1` [Example 110, 6-((4-((6-(fluoromethyl)pyridin-3-yl)methoxy)-3-methoxyphenyl)amino)-3-morpholinoquinoxaline-5-carbonitrile], the IC50 in assay [1] (class symbol) is 100 to 300 nM; in assay [2] (bound), above 1000 nM; in [3] it was below 300 nM; in assay [4], 1000 to 10000 nM; in [5], 1000 to 10000 nM; in assay [7], above 1000 nM. For the same compound, the IC50 in assay [8] is below 100 nM; in assay [9] it was above 10000 nM. Besides, the inhibition at 1 µM in assay [6] was above 50%.
In the case of `CCCc1ccc(COc2ccc(Nc3ccc4ncc(N5CCOCC5)nc4c3C#N)cc2OC)cn1` [Example 98, 6-((3-methoxy-4-((6-propylpyridin-3-yl)methoxy)phenyl)amino)-3-morpholinoquinoxaline-5-carbonitrile], the IC50 is below 100 nM in assay [1] (class symbol); above 1000 nM in assay [2] (bound); below 300 nM in assay [3]; 1000 to 10000 nM in [4]; below 300 nM in assay [5]; above 1000 nM in [7]. The IC50 in assay [8] was below 100 nM; in [9] it was above 10000 nM. Moreover, in [6], the inhibition at 1 µM is above 50%.
Turning to `COc1ccc(COc2ccc(N(C)c3ccc4ncc(N5CCOCC5)nc4c3C#N)cc2OC)cc1` [Example 60, 6-((3-methoxy-4-((4-methoxybenzyl)oxy)phenyl)(methyl)amino)-3-morpholinoquinoxaline-5-carbonitrile], the IC50 in [1] (class symbol) is 300 to 1000 nM; in assay [2] (bound), above 1000 nM; in assay [3], below 300 nM; in assay [4] it was 1000 to 10000 nM; in assay [5], 1000 to 10000 nM; in assay [7], above 1000 nM. The IC50 in assay [8] is below 100 nM; in [9], above 10000 nM. For the same compound, the inhibition at 1 µM in [6] is above 50%.
Take `COc1ccc(COc2ccc(Nc3ccc4ncc(N5CCOCC5)nc4c3C#N)cc2OC)cc1C#N` [Example 96, 6-((4-((3-cyano-4-methoxybenzyl)oxy)-3-methoxy-phenyl)amino)-3-morpholinoquinoxaline-5-carbonitrile]: the IC50 in assay [1] (class symbol) is 100 to 300 nM; in [2] (bound) it was above 1000 nM; in [3], below 300 nM; in assay [4] it was 1000 to 10000 nM; in assay [5] it was above 10000 nM; in assay [7], above 1000 nM. The IC50 was below 100 nM in assay [8] and above 10000 nM in assay [9]. Moreover, the inhibition at 1 µM in assay [6] is above 50%.
